The test system of test [1] is M. tuberculosis branched-chain aminotransferase. The test is classed as biochemical, Mycobacterium tuberculosis H37Rv. The conditions noted are these: for amino donor activity for Met formation from KMTB: 2 mM individual amino acid, 1 mM KMTB, 30 min at 37°C (Figure 5); for Km: read-out: Apparent Km.
Another test has as its target M. tuberculosis BCAT (Mycobacterium tuberculosis, UniProt P9WQ75). Nature of the test: Inhibition of BCAT-catalysed Met formation by aminooxy compounds. In kind it is biochemical, Mycobacterium tuberculosis H37Rv. The conditions noted are these: for inhibition of Met formation, ranking at 0.1 mM / inhibition of Met formation: 2.0 mM leucine; for inhibition of Met formation, ranking at 0.1 mM: 0.1 mM inhibitor (Figure 6); for type of inhibition: fit to competitive, uncompetitive and mixed inhibition equations; for inhibition of Met formation: 0.1 or 1.0 mM inhibitor (Figure 6). On the procedure:
Aminotransferase activities were assayed by an HPLC method. 5 or 10 μl of recombinant enzyme was added to 100 μl of substrate mix (100 mM PO4 (pH 7.4)/50 μM PLP/various concentrations of amino acid/various concentrations of keto acid) and incubated for 30 min at 37°C. The samples were then stored at -20°C until analysis by HPLC. All samples were analysed by pre-column derivatisation and reverse-phase HPLC. 10 μl of sample was mixed with 50 μl of 400 mM borate pH 10.5 and then with 10 μl of 10 mg/ml o-phthalaldehyde/12 μl/ml mercaptopropionate/400 mM borate pH 10.5 prior to the injection of 7.0 μl onto a 2.1 × 200 mm ODS-AA column (Agilent; Mississauga, ON, Canada). The column was eluted using 2.72 mg/ml sodium acetate pH 7.2/0.018% v/v triethylamine/0.3% v/v tetrahydrofuran as Buffer A and 2.72 mg/ml sodium acetate pH 7.2/40% v/v methanol/40% v/v acetonitrile as Buffer B with a linear gradient of 0 – 17% B over 16 min followed by a linear gradient of 17–100% B over 1 min and 6.0 min at 100% B. The flow rate was 0.45 ml/min from 0 – 16 min and 0.80 ml/min from 17–30 min. The elution of derivatised amino acids was monitored at 338 nm and fluorometrically with an excitation of 338 nm and an emission of 450 nm. All separations were performed on an Agilent 1100 HPLC equipped with an autosampler, variable wavelength ultraviolet/visible spectrophotometric detector, fluorescence detector, and Chemstation operating system.
Initial inhibition studies screened 13 aminooxy compounds against M. tuberculosis BCAT using 2.0 mM Leu/1.0 mM KMTB/0.1 or 1.0 mM inhibitor in the enzyme incubation. […] These reactions involved 0.5, 1.0, 2.0, or 3.0 mM Leu and 1.0 mM KMTB in the reaction mixture together with 0, 25, 50, 75, 100, 150, 200 μM of inhibitor. The Ki values were determined by non-linear curve fitting with the Scientist software programmed with competitive, uncompetitive, and mixed inhibition equations [25].

The next test concerns M. marinum. The test can be described thus: In vitro growth inhibition, microtitre doubling dilution, A650 nm. In kind it is cell-based, M. marinum Aronson (ATCC927).
Test [2] relates to M. tuberculosis. Described as above. The test is classed as cell-based, M. tuberculosis H37Rv.
The subject of test [3] is M. tuberculosis. Conditions: older study, other medium, cited from earlier work.
[4] abbreviates: varying keto acid substrate, 10 mM cosubstrate Leu.
Where [5] appears, read: 0.5-3.0 mM Leu, 1.0 mM KMTB, 0-200 μM inhibitor.
[6] abbreviates: read-out: Kic (competitive component of mixed-type inhibition), 0.5-3.0 mM Leu, 1.0 mM KMTB, 0-200 μM inhibitor.
Where [7] appears, read: M. marinum, n = 8, 8 days at 30°C, Middlebrook 7H9.
Where [8] appears, read: M. marinum, n = 8, 8 days at 30°C, Middlebrook 7H9, read-out: IC50.
The mark [9] stands for this setting: M. tuberculosis, n = 6, 14 days at 37°C, Middlebrook 7H9.
Setting [10] is: M. tuberculosis, n = 6, 14 days at 37°C, Middlebrook 7H9, read-out: IC50.
Where [11] appears, read: Mycobacterium tuberculosis, 336 h.
The mark [12] stands for this setting: varying substrate, 10 mM cosubstrate KG, Glu formation.
Where [13] appears, read: varying substrate, 10 mM cosubstrate KMTB, Met formation.

≈ marks a conversion by molar mass, not a printed value. Like-named read-outs stand apart in the source and are kept apart here. A value given as a limit tells only on which side of the number the result lay.

Sequence of M. tuberculosis BCAT (P9WQ75 whole entry, looked up): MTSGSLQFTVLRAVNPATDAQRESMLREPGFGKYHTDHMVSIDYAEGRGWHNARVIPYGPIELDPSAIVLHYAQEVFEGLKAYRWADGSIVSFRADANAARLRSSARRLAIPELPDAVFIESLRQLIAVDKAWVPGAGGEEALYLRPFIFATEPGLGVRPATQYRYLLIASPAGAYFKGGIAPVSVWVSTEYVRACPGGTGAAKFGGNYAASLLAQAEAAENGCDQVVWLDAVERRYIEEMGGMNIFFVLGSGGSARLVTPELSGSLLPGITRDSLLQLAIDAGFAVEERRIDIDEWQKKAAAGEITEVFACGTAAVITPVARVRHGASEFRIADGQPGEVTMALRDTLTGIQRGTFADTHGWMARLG

Take `N[C@@H](Cc1c[nH]c2ccccc12)C(=O)O` [tryptophan]: the “amino donor activity for Met formation from KMTB” value (“amino donor activity” below) in test [1] is “much lesser ability to transaminate KMTB”.

By Km is commonly meant the substrate concentration at which the rate is half of its maximum. `O=C(O)CCC(=O)C(=O)O` [KG, ketoglutarate]: in test [1] (setting [4]), the “Apparent Vmax” value is listed as 12.80 ± 1.12 μmol/min/mg protein and the Km turned out to be 6950 ± 1440 µM.

A word on the IC50: it is the concentration at which inhibition is half-maximal. Broadly, the MIC is the smallest concentration in the dilution series that meets the test's criterion for growth inhibition. Consider `NOCC(=O)O` [carboxymethoxylamine], for which the Ki on M. tuberculosis BCAT was found to be 21 ± 7.27 µM. Besides, at M. tuberculosis BCAT (1.0 mM KMTB), the “inhibition of Met formation, ranking at 0.1 mM” value (“inhibition … at 0.1 mM” below) is on record as “most active”. Moreover, the “Kiu (uncompetitive component of mixed-type inhibition)” value at M. tuberculosis BCAT (setting [5]) turned out to be 142.42 ± 69.76 µM. In addition, the type of inhibition entry at M. tuberculosis BCAT is recorded as “mixed-type inhibition”. Besides, the 50% inhibitory concentration (IC50) in the test on M. marinum (Mycobacterium marinum, 192 h, M. marinum, n = 8, 8 days at 30°C, Middlebrook 7H9, read-out: IC50) came out at 89.3 ± 7.65 µM; in the test on M. tuberculosis [2] (Mycobacterium tuberculosis, 336 h, M. tuberculosis, n = 6, 14 days at 37°C, Middlebrook 7H9, read-out: IC50), 71 ± 7.83 µM. The MIC is 313 µM in the test with M. marinum (Mycobacterium marinum, 192 h, M. marinum, n = 8, 8 days at 30°C, Middlebrook 7H9, read-out: MIC); 313 µM in the test with M. tuberculosis [2] (Mycobacterium tuberculosis, 336 h, M. tuberculosis, n = 6, 14 days at 37°C, Middlebrook 7H9, read-out: MIC); 313 µM in the test on M. tuberculosis [2] (Mycobacterium tuberculosis, M. tuberculosis, as stated in text (present data), read-out: MIC); 910 µM (≈ 82.9 µg/mL) with M. tuberculosis [3] (ref 35); 170 µM (≈ 15.5 µg/mL) in the test with M. tuberculosis [3] (ref 37).

In the case of `[H]/N=C(/N)N[C@H]1[C@H](O)[C@@H](O)[C@H](O[C@@H]2O[C@@H](C)[C@](O)(C=O)[C@H]2O[C@@H]2O[C@@H](CO)[C@H](O)[C@@H](O)[C@@H]2NC)[C@@H](N/C(N)=N\[H])[C@@H]1O` [streptomycin], the MIC in the test on M. marinum (Mycobacterium marinum, M. marinum, read-out: MIC) amounted to 8 µg/mL; with M. tuberculosis [2] (Mycobacterium tuberculosis, M. tuberculosis, read-out: MIC) it was 2 µg/mL.

With `CC(C)(C)ON` [O-(t-butyl)hydroxylamine], the “inhibition … at 0.1 mM” value at M. tuberculosis BCAT (1.0 mM KMTB) is listed as “most active”. The “Kiu (uncompetitive component of mixed-type inhibition)” value on M. tuberculosis BCAT (setting [5]) turned out to be 85.60 ± 44.79 µM. Moreover, the type of inhibition entry on M. tuberculosis BCAT is given as “mixed-type inhibition”. On M. tuberculosis BCAT (setting [6]), the Ki stood at 11 ± 2.76 µM. Further, the minimum inhibitory concentration (MIC) with M. marinum (setting [7]) and with M. tuberculosis [2] (setting [9]) was 10000 µM in each case. For the same compound, the 50% inhibitory concentration (IC50) with M. marinum (setting [8]) turned out to be 43.2 ± 10.5 µM; with M. tuberculosis [2] (setting [10]), 131 ± 23.1 µM.

`NOCC[C@H](N)C(=O)O` [canaline]: the “inhibition of Met formation” value against M. tuberculosis BCAT (1.0 mM KMTB) was “not a particularly good inhibitor”. In addition, the IC50 was 335 ± 13.6 µM in the test on M. marinum (Mycobacterium marinum, 192 h) and 273 ± 14.6 µM in the test on M. tuberculosis [2] (setting [11]). Moreover, the minimal inhibitory concentration (MIC) in the test on M. marinum (Mycobacterium marinum, 192 h) came to 1250 µM; in the test with M. tuberculosis [2] (setting [11]), 1250 µM.

Consider `NOCc1ccccc1` [O-benzylhydroxylamine], for which the “inhibition … at 0.1 mM” value against M. tuberculosis BCAT (1.0 mM KMTB) was “most active”. Further, on M. tuberculosis BCAT (setting [5]), the “Kiu (uncompetitive component of mixed-type inhibition)” value was 84.08 ± 31.91 µM. Further, the type of inhibition entry on M. tuberculosis BCAT is “mixed-type inhibition”. Moreover, the Ki on M. tuberculosis BCAT (setting [6]) worked out at 8.2 ± 2.56 µM. In addition, the MIC in the test on M. marinum (setting [7]) and with M. tuberculosis [2] (setting [9]) was 1250 µM each time. The half-inhibitory concentration (IC50) in the test on M. marinum (setting [8]) is 411 ± 67.1 µM; in the test with M. tuberculosis [2] (setting [10]), 468 ± 62.8 µM.

As for `CC(C)C[C@H](N)C(=O)O` [Leu, leucine], the “amino donor activity” value in test [1] is given as “most effective substrates”. Besides, in test [1] (setting [12]), the “Apparent Vmax” value was found to be 13.44 ± 0.84 μmol/min/mg protein and the Michaelis-Menten constant (Km) is 6020 ± 940 µM. For the same compound, in test [1] (setting [13]), the “Apparent Vmax” value is on record as 3.65 ± 0.43 μmol/min/mg protein and the Michaelis constant (Km) stood at 2500 ± 900 µM.

In the case of `CC(C)[C@H](N)C(=O)O` [Val, valine], the “amino donor activity” value in test [1] is “most effective substrates”. Besides, in test [1] (setting [12]), the “Apparent Vmax” value is on record as 11.82 ± 0.80 μmol/min/mg protein and the Km was 5790 ± 990 µM. Further, in test [1] (setting [13]), the “Apparent Vmax” value stood at 2.58 ± 0.41 μmol/min/mg protein and the Michaelis-Menten constant (Km) is 1770 ± 860 µM.

As for `C[Si](C)(C)ON` [O-trimethylsilylhydroxylamine], the “inhibition of Met formation” value against M. tuberculosis BCAT (1.0 mM KMTB) is “With the exception of O-trimethylsilylhydroxylamine, all of the compounds inhibited Met formation to some extent”.

Regarding `CC[C@H](C)[C@H](N)C(=O)O` [Ile, Isoleucine], the “amino donor activity” value in test [1] was “most effective substrates”. In test [1] (setting [12]), the “Apparent Vmax” value is 14.35 ± 1.08 μmol/min/mg protein and the Michaelis constant (Km) is 6160 ± 1140 µM. In test [1] (setting [13]), the “Apparent Vmax” value worked out at 4.28 ± 0.32 μmol/min/mg protein and the Km was 2850 ± 560 µM.

Regarding `N[C@@H](Cc1ccc(O)cc1)C(=O)O` [Tyrosine], in test [1], the “amino donor activity” value is given as “much lesser ability to transaminate KMTB”.

As to `N[C@@H](Cc1ccccc1)C(=O)O` [Phe, phenylalanine], the “amino donor activity” value in test [1] is given as “also active as amino donors”. For the same compound, in test [1] (setting [13]), the “Apparent Vmax” value is 2.17 ± 0.22 μmol/min/mg protein and the Km was found to be 7440 ± 1400 µM.

Consider `CSCCC(=O)C(=O)O` [KMTB, ketomethiobutyrate], for which, in test [1] (setting [4]), the “Apparent Vmax” value was 4.22 ± 0.72 μmol/min/mg protein and the Km is 4200 ± 1790 µM.

With `N[C@@H](CCC(=O)O)C(=O)O` [Glu, glutamate], the “amino donor activity” value in test [1] is “also active as amino donors”. In test [1] (setting [13]), the “Apparent Vmax” value is recorded as 5.70 ± 1.20 μmol/min/mg protein and the Km was found to be 9530 ± 3430 µM.

Take `C=CCON` [O-allylhydroxylamine]: at M. tuberculosis BCAT (1.0 mM KMTB), the “inhibition … at 0.1 mM” value is given as “most active”. Further, the “Kiu (uncompetitive component of mixed-type inhibition)” value at M. tuberculosis BCAT (setting [5]) was over 200 µM. For the same compound, at M. tuberculosis BCAT, the type of inhibition result is “mixed-type inhibition”. Besides, the Ki at M. tuberculosis BCAT (setting [6]) amounted to 21.6 ± 11.1 µM. For the same compound, the MIC in the test with M. marinum (setting [7]) worked out at 78 µM; in the test on M. marinum (M. marinum, read-out: MIC), 78 µM; in the test with M. tuberculosis [2] (M. tuberculosis, as stated in text (present data), read-out: MIC), 156 µM; with M. tuberculosis [2] (setting [9]), 156 µM. Besides, the IC50 in the test on M. marinum (setting [8]) amounted to 8.49 ± 1.96 µM; with M. tuberculosis [2] (setting [10]), 39.2 ± 2.01 µM.

These data come from publication PMC524486, “Branched-chain amino acid aminotransferase and methionine formation in Mycobacterium tuberculosis” (BMC Microbiology, 2004).
